Laboratory results taken from patent US20240262835A1, “PRMT5 INHIBITING COMPOUNDS AND USES THEREOF” (ANTENGENE DISCOVERY LIMITED, priority 2023, published 2024).
Like-named read-outs stand apart in the source and are kept apart here.

Legend:
[1] = Hepatic metabolic stability (HMS) assay, human hepatocytes; conditions: human, cryopreserved hepatocytes
Procedure: 1) 10 mM test compounds were provided.
(§9) 2) 30 mM positive control stock solutions: Dissolved accurate amount of positive control compounds in dimethyl sulfoxide (DMSO).
(§10) 3) 1000× Stock Solution: Diluted 10 mM test compounds and 30 mM positive control compounds to 1 mM and 3 mM with DMSO in 96-well plates.
(§11) 4) 100× Dosing Solution: Diluted 1 mM test compounds and 3 mM positive control compounds to 100 μM and 300 μM dosing solutions with ACN.
(§12) 5) Preparation of 0.5×10^6/mL cells suspension: cryopreserved cells were thawed, isolated and suspended in Incubation Medium, then diluted with pre-warmed Incubation Medium to 0.5×10^6 cells/mL.
(§13) 6) Add 198 μL of pre-warmed cell suspensions in 96-well plates.
(§14) 7) Preparation of Quenching Plate: Transfer 125 μL of stop solution in a set of pre-labeled 96-well plates.
(§15) 8) Spike 2 μL dosing solution to each well of 96-well plates in duplicate.
(§16) 9) For TO Samples, mix to achieve a homogenous suspension for about 1 min, then immediately transfer 25 μL of each sample into well containing 125 μL of ice-cold stop solution followed by mixing.
(§17) 10) Incubate all plates at 37° C. in a 95% humidified incubator at 5% CO2 to start the reactions with constant shaking.
(§18) 11) At 15, 30, 60 and 90 min, mix samples and then transfer 25 μL of each sample at each time point to well containing 125 μL of ice-cold stop solution followed by mixing.
(§19) 12) Medium Control (MC) sample plates (labeled as TO-MC and T90-MC) are prepared in the same way as cell incubation except that medium was used instead of cell suspension.
(§20) 13) At each corresponding time point, stop the reactions by removing the plates from incubator and mixing with 125 μL of ice-cold stop solution.
(§21) 14) Vortex the plates immediately on a plate shaker at 600 rpm for 10 minutes. Then, centrifuge all sample plates at 3220×g for 20 min at 4° C.
(§22) 15) After centrifugation, 80 μL/well of supernatant in the sample plates are transferred to another set of pre-labeled 96-well plates which containing 240 μL of ultra pure water according to the plate map.
(§23) 16) Analytical plates are sealed and store at 4° C. until LC-MS/MS analysis.
(§24) The remaining percents of test articles after incubation were calculated by the follow equations:
(§25) Use the following equation of first order kinetics to calculate T1/2 and CLint:

[2] = Hepatic metabolic stability (HMS) assay, cynomolgus monkey hepatocytes; conditions: cynomolgus monkey, cryopreserved hepatocytes
Procedure: 1) 10 mM test compounds were provided.
as §9, §10, §11, §12, §13, §14, §15, §16, §17, §18, §19, §20, §21, §22, §23, §24, §25

[3] = tested on: HCT116 parental (wild type) cells; assay: HCT116 cell proliferation assay (CTG), parental cells; assay type: cell-based, human; conditions: Cell Titer-Glo
Procedure: (§1) Control samples were analyzed in parallel.
(§2) On Day 0, 150 HCT116 parental or HCT116 homozygous MTAP knockout cells were seeded in 96-well plates in McCoy's 5A medium containing 10% fetal bovine serum and pen/strep. And the cells were incubated overnight at 37° C. and 5% CO2.
(§3) On Day 1, cells were treated with 9-point serial dilution of compound, using a top concentration of 50 μM, 1:5 serial dilution steps and, a DMSO-only control. And cells were incubated for 6 days.
(§4) On Day 7, cell viability was measured using a CTG assay Kit (Cell Titer-Glo; Promega, catalog no.: G7573) in accordance with the manufacturer's instructions. Assays plates were read on a EnVision™ Multilabel Reader using the Ultra-Sensitive luminescence model. The data were analyzed by GraphPad Prism 5.0 software, and the dose-effect curve was obtained by fitting the data using nonlinear S-curve regression, from which the IC50 value was calculated.

[4] = Hepatic metabolic stability (HMS) assay, dog hepatocytes; conditions: dog, cryopreserved hepatocytes
[5] = In vivo pharmacokinetics assay in mice via IV and PO; design: species or system ICR mice; conditions: for Mean Concentration In brain / Mean Concentration In plasma / B/P ratio: PO (Group 4 design: 30 mg/kg); for B/P ratio: brain to plasma, one value for 2 h and 4 h
Procedure: Pharmacokinetics assay for test compounds was performed in mice via IV and PO.
Test compound solution was prepared on the day of administration.
Solvent: IV+PO: 5% DMSO+10% Soultol+85% H2O or saline
Species: ICR mice; SPF level.
Source: Beijing Vital River Laboratory Animal Technology Co., Ltd.
Animal selection: Males. No random grouping
Weighed before dosing, calculated dosage according to body weight. For Groups 1-3, the drug was administered intravenously or intragastrically. For Group 4, the drug administered intragastrically.
For Groups 1-3, at 0.083 h, 0.25 h, 0.5 h, 1 h, 2 h, 4 h, 6 h, 8 h, 24 h, after administration. For Group 4, at 2 h and 4 h after administration.
Blood was collected through the cheeks. For each sample, about 0.05 mL of blood was collected and was added heparin sodium or EDTA-2K as anticoagulant, and was placed on wet ice.
The blood samples were collected and placed on ice and was centrifuged within 1 hour (centrifugation: 6000 g, 3 minutes, 2-8° C.) to separate plasma. Plasma samples were stored in a −80° C. refrigerator prior to analysis.
The pharmacokinetic parameters were calculated using Phoenix WinNonlin8.2.0 based on the blood concentration data at different time points, and AUC0-t, AUC0-∞, MRT0-∞, Cmax, Tmax, and T1/2 and mean values and standard deviations thereof were provided.

in vitro [6] = conditions: rat, microsomes
in vitro [7] = conditions: dog, microsomes
[8] = tested on: HCT116 homozygous MTAP knockout cells; assay: HCT116 cell proliferation assay (CTG), MTAP knockout cells; assay type: cell-based, human; conditions: Cell Titer-Glo
Procedure: as §1, §2, §3, §4

[9] = tested on: cryopreserved hepatocytes
Procedure: 1) 10 mM test compounds were provided.
as §9, §10, §11, §12, §13, §14, §15, §16, §17, §18, §19, §20, §21, §22, §23, §24, §25

[10] = microsomes; for T1/2 of LMS, H / CLint (mic) H: human
[11] = tested on: human colon cancer cell line HCT116 (WT); assay: In vivo efficacy assay, subcutaneous HCT116 WT xenograft; design: species or system Balb/C nude female mouse; conditions: 15 mg/kg PO/QD, 21 days, Balb/C nude mice
Procedure: (§5) The antitumor effect or MTAP/MTA selectivity of the compounds provided herein in the subcutaneously transplanted Balb/C nude female mouse model of human colon cancer cell line HCT116 (WT and MTAP KO) was tested.
(§6) Cell viability and cell count were determined. Cell count of the suspension was adjusted to 1×10^8 cells/mL and mixed with Matrigel in a 1:1 volume. Each mouse for this study were inoculated subcutaneously in the right front flank region with 5×10^6 tumor cells (0.1 mL) for tumor development.
(§7) The randomization started when the mean tumor size reaches approximately 100-150 mm^3. Mice inoculated with HCT116 WT cells were randomized on day 7. Mice inoculated with HCT116 MTAP KO cells were randomized on day 8. All animals were randomly allocated to 5 study groups, each group consisted of 8 animals. Randomization was performed based on randomized block design.
(§8) Tumor volume was measured twice per week in two dimensions using a caliper, and the volume was expressed in mm^3 using the formula: “V=(L×W×W)/2”, where V is tumor volume, L is tumor length (the longest tumor dimension) and W is tumor width (the longest tumor dimension perpendicular to L).

[12] = tested on: cryopreserved hepatocytes; remark: listed apart in the source
Procedure: 1) 10 mM test compounds were provided.
as §9, §10, §11, §12, §13, §14, §15, §16, §17, §18, §19, §20, §21, §22, §23, §24, §25

[13] = tested on: human colon cancer cell line HCT116 (MTAP KO); assay: In vivo efficacy assay, subcutaneous HCT116 MTAP KO xenograft; design: species or system Balb/C nude female mouse; conditions: 15 mg/kg PO/QD, 21 days, Balb/C nude mice
Procedure: as §5, §6, §7, §8

[14] = tested on: cryopreserved hepatocytes; assay: Hepatic metabolic stability (HMS) assay, rat hepatocytes; conditions: for T1/2 (hepatocytes) R / CLint (liver) R: rat hepatocytes; for T1/2 (hepatocytes) R: 1 μM test compound (3 μM positive control); for CLint (liver) R: scaled to liver; for CLint (hep) R: rat, hepatocytes
Procedure: 1) 10 mM test compounds were provided.
as §9, §10, §11, §12, §13, §14, §15, §16, §17, §18, §19, §20, §21, §22, §23, §24, §25

[15] = tested on: cryopreserved hepatocytes; assay: Hepatic metabolic stability (HMS) assay, mouse hepatocytes; conditions: for T1/2 (hepatocytes) M / CLint (liver) M: mouse hepatocytes; for T1/2 (hepatocytes) M: 1 μM test compound (3 μM positive control); for CLint (liver) M: scaled to liver; for CLint (hep) M: mouse, hepatocytes
Procedure: 1) 10 mM test compounds were provided.
as §9, §10, §11, §12, §13, §14, §15, §16, §17, §18, §19, §20, §21, §22, §23, §24, §25

[16] = Liver microsome metabolic stability (LMS) assay, cynomolgus monkey
[17] = Liver microsome metabolic stability (LMS) assay, human
[18] = Homo sapiens, HCT-116, 6 days treatment

## CN(C(=O)c1ccc2nc(N)c3cncn3c2c1)[C@@H]1COc2cc(C(F)(F)F)ccc21 [Compound 12]
[1]
  half-life at 1 μM: 1.84 h
[2]
  half-life at 1 μM: 1.11 h
[3]; [18]
  IC50: 5160 nM
[4]
  half-life at 1 μM: 2.12 h
[5]; male, ICR, mouse, plasma, IV 1.0 mg/kg
  clearance: 3.48 mL/min/kg
In vitro [6]
  half-life at 1 μM: > 2.42 h
In vitro [7]
  half-life at 1 μM: > 2.42 h
[8]; [18]
  IC50: 43 nM

## CN(C(=O)c1ccc2nc(N)c3cncn3c2c1)C1COc2cc(C(F)(F)F)ccc21 (stereo not drawn) [Compound 17]
[9]
  CLint (liver) M: 183.3 mL/min/kg
[9]; mouse
  CLint (hep) M: 15.4 μL/min/10^6
  T1/2 (hepatocytes) M: 1.5 h
[10]
  T1/2 of LMS, H: >2.42 h
[3]; 6 days treatment
  IC50: 4080 nM
[11]
  Tumor growth inhibition (TGI) HCT 116 WT: 66%
[5]; IV 1.0 mg/kg
  AUC0-t: 5219 ng·h/mL
  Cl: 3.10 mL/min/kg
  T1/2: 5.05 h
[5]; IV 1.0 mg/kg, plasma
  Cmax: 965 ng/mL
[5]; PO 10 mg/kg
  AUC0-t: 50800 ng·h/mL
  T1/2: 5.07 h
[5]; PO 10 mg/kg, plasma
  C8 h: 2287 ng/mL
  C24 h: 257 ng/mL
  Cmax: 4627 ng/mL
[5]; PO 30 mg/kg
  AUC0-t: 174589 ng·h/mL
  T1/2: 4.87 h
[5]; PO 30 mg/kg, plasma
  C8 h: 8260 ng/mL
  C24 h: 860 ng/mL
  Cmax: 16233 ng/mL
[5]; 2 h
  Mean Concentration In brain: 3308 ± 1056 ng/g
  Mean Concentration In plasma: 14843 ± 4945 ng/mL
[5]; 4 h
  Mean Concentration In brain: 2668 ± 224 ng/g
  Mean Concentration In plasma: 13667 ± 1365 ng/mL
[5]
  B/P ratio: 21%
[12]
  CLint (liver) R: 49.8 mL/min/kg
[12]; rat
  CLint (hep) R: 10.6 μL/min/10^6
  T1/2 (hepatocytes) R: 2.172 h
[13]
  Tumor growth inhibition (TGI) HCT 116 MTAP KO: −11%
rat, microsomes
  T1/2 of LMS, R: >2.42 h
[8]; 6 days treatment
  IC50: 32 nM

## CN(C(=O)c1cc2c(cn1)nc(N)c1cncn12)C1COc2cc(C(F)(F)F)ccc21 (stereo not drawn) [Compound 19]
[10]
  CLint (mic) H: <9.6 µL/min/mg
  T1/2 of LMS, H: >2.42 h
  CLint (liver) H: <8.6 mL/min/kg
[3]; 6 days treatment
  IC50: 3060 nM
[11]
  Tumor growth inhibition (TGI) HCT 116 WT: 74%
[5]; IV 1.0 mg/kg
  Cl: 4.38 mL/min/kg
[5]; PO 10 mg/kg
  AUC0-t: 32782 ng·h/mL
  T1/2: 4.88 h
[5]; PO 10 mg/kg, plasma
  C8 h: 1833 ng/mL
  C24 h: 178 ng/mL
  Cmax: 2620 ng/mL
[5]; PO 30 mg/kg
  AUC0-t: 94249 ng·h/mL
  T1/2: 5.26 h
[5]; PO 30 mg/kg, plasma
  C8 h: 4817 ng/mL
  C24 h: 540 ng/mL
  Cmax: 8117 ng/mL
[13]
  Tumor growth inhibition (TGI) HCT 116 MTAP KO: 11%
[14]
  T1/2 (hepatocytes) R: 2.443 h
  CLint (liver) R: 44.3 mL/min/kg
  CLint (hep) R: 9.5 μL/min/10^6
microsomes
  CLint (liver) R: <17.3 mL/min/kg
rat, microsomes
  CLint (mic) R: <9.6 µL/min/mg
  T1/2 of LMS, R: >2.42 h
[15]
  T1/2 (hepatocytes) M: 2.35 h
  CLint (liver) M: 116.7 mL/min/kg
  CLint (hep) M: 9.8 μL/min/10^6
[8]; 6 days treatment
  IC50: 39 nM

## CN(C(=O)c1cc2c(cn1)nc(N)c1cncn12)C1COc2cc(C(F)(F)F)ccc21 (stereo not drawn) [Compound 21]
[10]
  CLint (mic) H: <9.6 µL/min/mg
  T1/2 of LMS, H: >2.42 h
  CLint (liver) H: <8.6 mL/min/kg
[11]
  Tumor growth inhibition (TGI) HCT 116 WT: 59%
[5]; IV 1.0 mg/kg
  Cl: 3.94 mL/min/kg
[5]; PO 10 mg/kg
  AUC0-t: 43397 ng·h/mL
  T1/2: 6.67 h
[5]; PO 10 mg/kg, plasma
  C8 h: 2537 ng/mL
  C24 h: 415 ng/mL
  Cmax: 2820 ng/mL
[5]; PO 30 mg/kg
  AUC0-t: 124997 ng·h/mL
  T1/2: 6.45 h
[5]; PO 30 mg/kg, plasma
  C8 h: 6880 ng/mL
  C24 h: 1257 ng/mL
  Cmax: 8710 ng/mL
[13]
  Tumor growth inhibition (TGI) HCT 116 MTAP KO: 11%
[14]
  T1/2 (hepatocytes) R: 2.983 h
  CLint (liver) R: 36.2 mL/min/kg
  CLint (hep) R: 7.7 μL/min/10^6
microsomes
  CLint (liver) R: <17.3 mL/min/kg
rat, microsomes
  CLint (mic) R: <9.6 µL/min/mg
  T1/2 of LMS, R: >2.42 h
[15]
  T1/2 (hepatocytes) M: 2.582 h
  CLint (liver) M: 106.3 mL/min/kg
  CLint (hep) M: 8.9 μL/min/10^6

## CN(C(=O)c1cc2c(cn1)nc(N)c1cncn12)C1CC(F)(F)c2cc(C(F)(F)F)ccc21 (stereo not drawn) [Compound 24]
[3]; 6 days treatment
  IC50: 3930 nM
[16]; cynomolgus monkey liver microsome
  CLint (mic) C: 9.9 µL/min/mg
[16]; cynomolgus monkey liver microsome 0.5 mg protein/mL, 1 μM, NADPH
  T1/2 of LMS, C: 2.338 h
[16]; cynomolgus monkey liver microsome, scaled to liver
  CLint (liver) C: 13.3 mL/min/kg
[11]
  Tumor growth inhibition (TGI) HCT 116 WT: 62%
[5]; IV 1.0 mg/kg
  Cl: 2.41 mL/min/kg
[5]; PO 10 mg/kg
  AUC0-t: 44942 ng·h/mL
  T1/2: 4.41 h
[5]; PO 10 mg/kg, plasma
  C8 h: 2598 ng/mL
  C24 h: 186 ng/mL
  Cmax: 3355 ng/mL
[5]; PO 50 mg/kg
  AUC0-t: 130284 ng·h/mL
  T1/2: 3.23 h
[5]; PO 50 mg/kg, plasma
  C8 h: 4983 ng/mL
  C24 h: 178 ng/mL
  Cmax: 15733 ng/mL
[5]; 2 h
  Mean Concentration In brain: 3132 ± 1647 ng/g
  Mean Concentration In plasma: 6327 ± 2604 ng/mL
[5]; 4 h
  Mean Concentration In brain: 3084 ± 145 ng/g
  Mean Concentration In plasma: 5983 ± 361 ng/mL
[5]
  B/P ratio: 51%
[13]
  Tumor growth inhibition (TGI) HCT 116 MTAP KO: 3%
[14]
  T1/2 (hepatocytes) R: 1.797 h
  CLint (liver) R: 60.2 mL/min/kg
  CLint (hep) R: 12.9 μL/min/10^6
Rat liver microsome
  CLint (mic) R: <9.6 µL/min/mg
Rat liver microsome 0.5 mg protein/mL, 1 μM, NADPH
  T1/2 of LMS, R: >2.42 h
Rat liver microsome, scaled to liver
  CLint (liver) R: <17.3 mL/min/kg
[15]
  T1/2 (hepatocytes) M: 1.27 h
  CLint (liver) M: 216.4 mL/min/kg
  CLint (hep) M: 18.2 μL/min/10^6
[17]; human liver microsome
  CLint (mic) H: <9.6 µL/min/mg
[17]; human liver microsome 0.5 mg protein/mL, 1 μM, NADPH
  T1/2 of LMS, H: >2.42 h
[17]; human liver microsome, scaled to liver
  CLint (liver) H: <8.6 mL/min/kg
[8]; 6 days treatment
  IC50: 52 nM
